From patent US9273058B2 (BRISTOL-MYERS SQUIBB COMPANY, priority 2013, dated 2016)
Like-named read-outs stand apart in the source and are kept apart here.

Legend:
[1] = target: CK1ε (Homo sapiens, UniProt P49674); experiment: CK1ε kinase assay (Caliper LabChip electrophoretic separation of fluoresceinated peptide substrate and product); assay type: biochemical; settings: 200 pM CK1ε, 50 μM ATP, 1.5 μM peptide, 22 hours at room temperature
In short: (§1)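 Incubated for twenty-two hours at ambient temperature, then quenched with EDTA and analyzed by electrophoretic separation of unphosphorylated and phosphorylated peptide.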

[2] = target: CK1δ (Homo sapiens, UniProt P48730); experiment: CK1δ kinase assay (Caliper LabChip electrophoretic separation of fluoresceinated peptide substrate and product); assay type: biochemical; settings: 200 pM CK1δ, 50 μM ATP, 1.5 μM peptide, 22 hours at room temperature
Chain of CK1δ (P48730 whole entry): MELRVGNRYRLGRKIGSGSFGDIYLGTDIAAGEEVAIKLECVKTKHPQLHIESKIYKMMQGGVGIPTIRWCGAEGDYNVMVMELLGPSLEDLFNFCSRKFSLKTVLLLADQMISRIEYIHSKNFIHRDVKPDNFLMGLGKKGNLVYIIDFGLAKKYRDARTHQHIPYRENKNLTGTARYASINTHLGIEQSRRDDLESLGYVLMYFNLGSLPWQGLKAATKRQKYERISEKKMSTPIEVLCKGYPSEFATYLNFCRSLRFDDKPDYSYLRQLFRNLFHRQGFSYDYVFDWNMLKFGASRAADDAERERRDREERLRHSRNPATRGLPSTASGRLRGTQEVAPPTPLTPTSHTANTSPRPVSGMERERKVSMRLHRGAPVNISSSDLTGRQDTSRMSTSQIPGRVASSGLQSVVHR
In short: as §1

Chain of CK1ε (P49674 whole entry): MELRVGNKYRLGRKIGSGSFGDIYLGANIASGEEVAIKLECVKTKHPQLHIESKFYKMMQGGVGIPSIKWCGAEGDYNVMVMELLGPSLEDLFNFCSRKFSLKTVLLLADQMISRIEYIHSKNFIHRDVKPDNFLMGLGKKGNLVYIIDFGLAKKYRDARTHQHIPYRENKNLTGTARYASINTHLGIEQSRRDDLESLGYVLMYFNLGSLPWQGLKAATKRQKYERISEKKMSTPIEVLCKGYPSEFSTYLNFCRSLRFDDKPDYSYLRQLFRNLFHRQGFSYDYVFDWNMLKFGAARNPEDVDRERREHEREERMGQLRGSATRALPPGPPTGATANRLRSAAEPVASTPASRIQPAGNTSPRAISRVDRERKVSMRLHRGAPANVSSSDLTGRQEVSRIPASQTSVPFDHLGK

| IC50 ([1]; read-out: CK1ε IC50 range) | IC50 ([2]; read-out: CK1δ IC50 range) | IC50 ([1]; read-out: CK1ε) | IC50 ([2]; read-out: CK1δ) | Structure (SMILES) |
| --- | --- | --- | --- | --- |
| 0.01 to 10 nM | 0.01 to 10 nM | – | – | COCCC1CN(C(=O)NC(C)(C)C)Cc2c(C(N)=O)c(-c3ccc(F)c(Cl)c3)nn21 (single isomer, unassigned) [Compound A101, N^5-(tert-Butyl)-2-(3-chloro-4-fluorophenyl)-7-(2-methoxyethyl)-6,7-dihydropyrazolo[1,5-a]pyrazine-3,5(4H)-dicarboxamide] |
| 0.01 to 10 nM | 0.01 to 10 nM | – | – | CC(C)(C)NC(=O)N1Cc2c(C(N)=O)c(-c3ccc(F)c(Cl)c3)nn2C(CCF)C1 (single isomer, unassigned) [Compound A102, N^5-(tert-Butyl)-2-(3-chloro-4-fluorophenyl)-7-(2-fluoroethyl)-6,7-dihydropyrazolo[1,5-a]pyrazine-3,5(4H)-dicarboxamide] |
| 0.01 to 10 nM | 0.01 to 10 nM | – | – | CC(C)(C)NC(=O)N1Cc2c(C(N)=O)c(-c3ccc(F)c(Cl)c3)nn2C(CCF)C1 (single isomer, unassigned) [Compound A103, N^5-(tert-Butyl)-2-(3-chloro-4-fluorophenyl)-7-(2-fluoroethyl)-6,7-dihydropyrazolo[1,5-a]pyrazine-3,5(4H)-dicarboxamide] |
| 100 to 2000 nM | 100 to 2000 nM | – | – | CC(C)(C)NC(=O)N1Cc2c(C(N)=O)c(-c3cccc(F)c3)nn2C(CF)C1 (single isomer, unassigned) [Compound A106, N^5-(tert-Butyl)-7-(fluoromethyl)-2-(3-fluorophenyl)-6,7-dihydropyrazolo[1,5-a]pyrazine-3,5(4H)-dicarboxamide] |
| 0.01 to 10 nM | 0.01 to 10 nM | – | – | CC(C)(C)NC(=O)N1Cc2c(C(N)=O)c(-c3cccc(F)c3)nn2C(CF)C1 (single isomer, unassigned) [Compound A107, N^5-(tert-Butyl)-7-(fluoromethyl)-2-(3-fluorophenyl)-6,7-dihydropyrazolo[1,5-a]pyrazine-3,5(4H)-dicarboxamide] |
| 10 to 100 nM | 10 to 100 nM | – | – | CC1CN(C(=O)NC(C)(C)C)Cc2c(C(N)=O)c(-c3cccc(F)c3)nn21 (single isomer, unassigned) [Compound A108, N^5-(tert-Butyl)-2-(3-fluorophenyl)-7-methyl-6,7-dihydropyrazolo[1,5-a]pyrazine-3,5(4H)-dicarboxamide] |
| 0.01 to 10 nM | 0.01 to 10 nM | – | – | CC1CN(C(=O)NC(C)(C)C)Cc2c(C(N)=O)c(-c3cccc(F)c3)nn21 (single isomer, unassigned) [Compound A109, N^5-(tert-Butyl)-2-(3-fluorophenyl)-7-methyl-6,7-dihydropyrazolo[1,5-a]pyrazine-3,5(4H)-dicarboxamide] |
| 0.01 to 10 nM | 0.01 to 10 nM | – | – | CC1CN(C(=O)NC2CC(F)(F)C2)Cc2c(C(N)=O)c(-c3cccc(Cl)c3)nn21 (single isomer, unassigned) [Compound A110, 2-(3-Chlorophenyl)-N^5-(3,3-difluorocyclobutyl)-7-methyl-6,7-dihydropyrazolo[1,5-a]pyrazine-3,5(4H)-dicarboxamide] |
| 0.01 to 10 nM | 0.01 to 10 nM | – | – | CC1CN(C(=O)NC2CC(F)(F)C2)Cc2c(C(N)=O)c(-c3cccc(Cl)c3)nn21 (single isomer, unassigned) [Compound A111, 2-(3-Chlorophenyl)-N^5-(3,3-difluorocyclobutyl)-7-methyl-6,7-dihydropyrazolo[1,5-a]pyrazine-3,5(4H)-dicarboxamide] |
| 0.01 to 10 nM | 0.01 to 10 nM | – | – | NC(=O)c1c(-c2cccc(Cl)c2)nn2c1CN(C(=O)NC1CC(F)(F)C1)CC2CF (single isomer, unassigned) [Compound A112, 2-(3-Chlorophenyl)-N^5-(3,3-difluorocyclobutyl)-7-(fluoromethyl)-6,7-dihydropyrazolo[1,5-a]pyrazine-3,5(4H)-dicarboxamide] |
| 0.01 to 10 nM | 0.01 to 10 nM | – | – | NC(=O)c1c(-c2cccc(Cl)c2)nn2c1CN(C(=O)NC1CC(F)(F)C1)CC2CF (single isomer, unassigned) [Compound A113, 2-(3-Chlorophenyl)-N^5-(3,3-difluorocyclobutyl)-7-(fluoromethyl)-6,7-dihydropyrazolo[1,5-a]pyrazine-3,5(4H)-dicarboxamide] |
| 10 to 100 nM | 100 to 2000 nM | – | – | CC(C)(C)NC(=O)N1Cc2c(C(N)=O)c(-c3ccc(F)c(Cl)c3)nn2C(C(C)(C)C)C1 (single isomer, unassigned) [Compound A117, N^5-7-Di-tert-butyl-2-(3-chloro-4-fluorophenyl)-6,7-dihydropyrazolo[1,5-a]pyrazine-3,5(4H)-dicarboxamide] |
| 10 to 100 nM | 10 to 100 nM | – | – | CC(C)C1CN(C(=O)NC(C)(C)C)Cc2c(C(N)=O)c(-c3ccc(F)c(Cl)c3)nn21 (single isomer, unassigned) [Compound A119, N^5-(tert-Butyl)-2-(3-chloro-4-fluorophenyl)-7-isopropyl-6,7-dihydropyrazolo[1,5-a]pyrazine-3,5(4H)-dicarboxamide] |
| 0.01 to 10 nM | 0.01 to 10 nM | – | – | CC(C)C1CN(C(=O)NC(C)(C)C)Cc2c(C(N)=O)c(-c3ccc(F)c(Cl)c3)nn21 (single isomer, unassigned) [Compound A120, N^5-(tert-Butyl)-2-(3-chloro-4-fluorophenyl)-7-isopropyl-6,7-dihydropyrazolo[1,5-a]pyrazine-3,5(4H)-dicarboxamide] |
| 10 to 100 nM | 100 to 2000 nM | – | – | CC(C)(C)C1CN(C(=O)NC2CC(F)(F)C2)Cc2c(C(N)=O)c(-c3ccc(F)c(Cl)c3)nn21 (single isomer, unassigned) [Compound A121, 7-(tert-Butyl)-2-(3-chloro-4-fluorophenyl)-N5-(3,3-difluorocyclobutyl)-6,7-dihydropyrazolo[1,5-a]pyrazine-3,5(4H)-dicarboxamide] |
| 0.01 to 10 nM | 0.01 to 10 nM | – | – | CC(C)(C)C1CN(C(=O)NC2CC(F)(F)C2)Cc2c(C(N)=O)c(-c3ccc(F)c(Cl)c3)nn21 (single isomer, unassigned) [Compound A122, 7-(tert-Butyl)-2-(3-chloro-4-fluorophenyl)-N5-(3,3-difluorocyclobutyl)-6,7-dihydropyrazolo[1,5-a]pyrazine-3,5(4H)-dicarboxamide] |
| 10 to 100 nM | 10 to 100 nM | – | – | NC(=O)c1c(-c2ccc(F)c(Cl)c2)nn2c1CN(C(=O)NC1CC(F)(F)C1)CC2C(F)(F)F (single isomer, unassigned) [Compound A125, 2-(3-Chloro-4-fluorophenyl)-N^5-(3,3-difluorocyclobutyl)-7-(trifluoromethyl)-6,7-dihydropyrazolo[1,5-a]pyrazine-3,5(4H)-dicarboxamide] |
| 0.01 to 10 nM | 0.01 to 10 nM | – | – | NC(=O)c1c(-c2ccc(F)c(Cl)c2)nn2c1CN(C(=O)NC1CC(F)(F)C1)CC2C(F)(F)F (single isomer, unassigned) [Compound A126, 2-(3-Chloro-4-fluorophenyl)-N^5-(3,3-difluorocyclobutyl)-7-(trifluoromethyl)-6,7-dihydropyrazolo[1,5-a]pyrazine-3,5(4H)-dicarboxamide] |
| 10 to 100 nM | 100 to 2000 nM | – | – | CC(C)(C)NC(=O)N1Cc2c(C(N)=O)c(-c3ccc(F)c(Cl)c3)nn2C(C(F)(F)F)C1 (single isomer, unassigned) [Compound A127, N^5-(tert-Butyl)-2-(3-chloro-4-fluorophenyl)-7-(trifluoromethyl)-6,7-dihydropyrazolo[1,5-a]pyrazine-3,5(4H)-dicarboxamide] |
| 0.01 to 10 nM | 0.01 to 10 nM | – | – | CC1CN(C(=O)NC(C)(C)C)Cc2c(C(N)=O)c(-c3cccc(Cl)c3)nn21 (centres unmarked) [A8] |
| 0.01 to 10 nM | 0.01 to 10 nM | – | – | NC(=O)c1c(-c2cccc(Cl)c2)nn2c1CN(C(=O)NC1CC(F)(F)C1)CC21CC1 [A130] |
| 10 to 100 nM | 10 to 100 nM | 90.3 nM | 27.8 nM | CC(C)(C)NC(=O)N1CCn2nc(-c3ccc(F)cc3)c(C(N)=O)c2C1 [Compound 1] |
| 10 to 100 nM | 10 to 100 nM | – | – | CC(C)NC(=O)N1CCn2nc(-c3ccc(F)cc3)c(C(N)=O)c2C1 [Compound 2, 2-(4-Fluorophenyl)-N^5-isopropyl-6,7-dihydropyrazolo[1,5-a]pyrazine-3,5(4H)-dicarboxamide] |
| 10 to 100 nM | 10 to 100 nM | 38.1 nM | 10.9 nM | CC(C)(C)NC(=O)N1CCn2nc(-c3cccc(F)c3)c(C(N)=O)c2C1 [Compound 4, N^5-(tert-Butyl)-2-(3-fluorophenyl)-6,7-dihydropyrazolo[1,5-a]pyrazine-3,5(4H)-dicarboxamide] |
| 10 to 100 nM | 10 to 100 nM | – | – | CC(C)NC(=O)N1CCn2nc(-c3cccc(F)c3)c(C(N)=O)c2C1 [Compound 5, 2-(3-Fluorophenyl)-N^5-isopropyl-6,7-dihydropyrazolo[1,5-a]pyrazine-3,5(4H)-dicarboxamide] |
| 0.01 to 10 nM | 0.01 to 10 nM | 7.2 nM | 2.4 nM | NC(=O)c1c(-c2cccc(F)c2)nn2c1CN(C(=O)NC1CCCCC1)CC2 [Compound 6, N^5-Cyclohexyl-2-(3-fluorophenyl)-6,7-dihydropyrazolo[1,5-a]pyrazine-3,5(4H)-dicarboxamide] |
| 10 to 100 nM | 10 to 100 nM | – | – | NC(=O)c1c(-c2cccc(F)c2)nn2c1CN(C(=O)NC1CC1)CC2 [Compound 7, N^5-Cyclopropyl-2-(3-fluorophenyl)-6,7-dihydropyrazolo[1,5-a]pyrazine-3,5(4H)-dicarboxamide] |
| 10 to 100 nM | 10 to 100 nM | – | – | NC(=O)c1c(-c2cccc(F)c2)nn2c1CN(C(=O)NC1CCC1)CC2 [Compound 8, N^5-Cyclobutyl-2-(3-fluorophenyl)-6,7-dihydropyrazolo[1,5-a]pyrazine-3,5(4H)-dicarboxamide] |
